This note sets out measurements from BindingDB's records for doi:10.1111/cbdd.12752 (Jagiellonian University Medical College, 2016).

The structures appear in SMILES notation.

For this assay, the target named is Histamine H4 receptor (Homo sapiens, UniProt Q9H3N8). Put plainly: In vitro [3H]histamine Binding Assay. The note with it: pH 7.4; 4 °C. As to the method: Prior to the experiments, cell membranes were sedimented by a 10 min centrifugation at 4 °C and 16 0009x g and resuspended in binding buffer (12.5 mM MgCl2, 1 mM EDTA and 75 mM Tris/HCl, pH 7.4). Competition binding experimentswere carried out by incubating membranes, 35 ug/well (prepared from Sf9 cells transiently expressing human H4R, co-expressed with G proteins Galphai2 and Gbeta1gamma2 subunits) in a final volume of 0.2 mL containing binding buffer and [3H]histamine 2x HCl (10 nM, 15.3 Ci/mmol, PerkinElmer, Waltham, MA, USA) in a 96 well microtitre plate. Assays were run in duplicates or triplicates with four or seven appropriate concentrations between 100 nM or 0.1 nM and 100 uM of the test compounds. Amount of experiments was at least 2. Only exceptions were for substance 2, 3, and 4 where only one experiment in duplicates was performed.Incubations were performed for 60 min at 25 °C and shaking at 250 rpm. Non-specific binding was determined.
Histamine H4 receptor, sequence (Q9H3N8 whole entry): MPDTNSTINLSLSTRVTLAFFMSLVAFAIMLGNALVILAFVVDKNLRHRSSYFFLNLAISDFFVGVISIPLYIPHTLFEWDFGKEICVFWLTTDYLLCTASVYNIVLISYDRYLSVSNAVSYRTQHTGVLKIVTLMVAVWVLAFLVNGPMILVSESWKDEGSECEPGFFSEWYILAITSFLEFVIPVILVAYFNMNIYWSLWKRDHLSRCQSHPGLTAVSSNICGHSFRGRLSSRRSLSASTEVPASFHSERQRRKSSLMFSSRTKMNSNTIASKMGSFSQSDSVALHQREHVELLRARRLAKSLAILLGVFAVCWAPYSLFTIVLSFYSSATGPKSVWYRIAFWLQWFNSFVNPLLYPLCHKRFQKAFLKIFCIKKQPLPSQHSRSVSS
A word on the Ki: it is a dissociation constant, usually derived from enzyme kinetics or from competition with a known ligand. Read a low Ki as a stronger hold on the target. In turn, `CN1CCN(CCCNC(=O)Nc2cccc(Cl)c2)CC1` [1-(3-Chlorophenyl)-3-(3-(4-methylpiperazin-1-yl)propyl)urea (7)] had a Ki of more than 100 µM.

In turn, `CN1CCN(CCCNC(=O)c2sc3cc(Cl)ccc3c2Cl)CC1` [3,6-Dichloro-N-(3-(4-methylpiperazin-1-yl)propyl)benzo[b]thiophene-2-carboxamide (6)] displayed an inhibition constant Ki of more than 100 µM.

Consider `CN1CCN(c2nc(N)nc(CN3C(=O)NC(C)(C)C3=O)n2)CC1` [3-((4-Amino-6-(4-methylpiperazin-1-yl)-1,3,5-triazin-2-yl)methyl)-5,5-dimethylimidazolidine-2,4-dione (9)], for which the Ki came to 14.6 µM.

Take `CC(C)Cc1nc(N)nc(N2CCN(C)CC2)n1` [4-(4-Methylpiperazin-1-yl)-6-(2-methylpropyl)-1,3,5-triazin-2-amine (10)]: the inhibitory constant (Ki) came out at 8.26 µM.

`CN1CCN(c2nc(N)nc(Cc3cccc4ccccc34)n2)CC1` [4-(4-Methylpiperazin-1-yl)-6-(naphthalen-1-ylmethyl)-1,3,5-triazin-2-amine (12)] yielded a Ki of 5.6 µM.

In turn, `CN1CCN(c2nc(N)nc(-c3ccncc3)n2)CC1` [4-(4-Methylpiperazin-1-yl)-6-(pyridin-4-yl)-1,3,5-triazin-2-amine (15)] registered a Ki of 3.19 µM.

Turning to `CN1CCN(c2nc(N)nc(COc3ccc(Cl)cc3)n2)CC1` [4-((4-Chlorophenoxy)methyl)-6-(4-methylpiperazin-1-yl)-1,3,5-triazin-2-amine (14)], the Ki turned out to be 10.6 µM.

The compound `CN1CCN(c2nc(N)nc(Cc3ccccc3)n2)CC1` [4-Benzyl-6-(4-methylpiperazin-1-yl)-1,3,5-triazin-2-amine (13)] gave a Ki of 7.5 µM.

Compound `CN1CCN(CCCNC(=O)c2cc3cc(Cl)ccc3[nH]2)CC1` [5-Chloro-N-(3-(4-methylpiperazin-1-yl)propyl)-1H-indole-2-carboxamide (5)] gave a Ki of more than 100 µM.

In turn, `CN1CCN(C(=O)c2ccccc2Cl)CC1` [(2-Chlorophenyl)(4-methylpiperazin-1-yl)methanone (1)] yielded a Ki of more than 100 µM.

`CN1CCN(C(=O)c2cccc(Cl)c2)CC1` [(3-Chlorophenyl)(4-methylpiperazin-1-yl)methanone (2)]: the Ki was 3.88 µM.

As for `CN1CCN(C(=O)c2ccc(Cl)cc2)CC1` [(4-Chlorophenyl)(4-methylpiperazin-1-yl)methanone (3)], the affinity corresponds to a Ki of 7.55 µM.

Take `CN1CCN(C(=O)Nc2ccc(Cl)cc2)CC1` [N-(4-Chlorophenyl)-4-methylpiperazine-1-carboxamide (4)]: the affinity, expressed as Ki, was 3.52 µM.
